The record followed here is patent US20240336577A1, “PYRAZINE COMPOUND, AND METHOD OF PREPARATION AND USE THEREOF” (SHENZHEN OLIVE BIOPHARMACEUTICALS CO., LTD, priority 2020, published 2024).

Each structure is given as a SMILES string.

The subject of test [1] is db/db mice. The test can be described thus: Glucose and lipid metabolism in db/db mice, 56 d administration. Format: in vivo. The following applies: once/d 56 d, TMP 5.0 mg/kg, mean±SEM, n=6; for Creatinine / Total cholesterol / Triglyceride / Urea: Losartan 10 mg/kg; for Creatinine / Total cholesterol / Triglyceride / Urea / Glucose determination / High-density lipoprotein cholesterol / Low-density lipoprotein cholesterol: OLB-1/OLB-2 13.32 mg/kg; for Glycated hemoglobin / Glucose determination / High-density lipoprotein cholesterol / Low-density lipoprotein cholesterol: metformin 225 mg/kg/d; for Glycated hemoglobin: OLB-1/OLB-2 13.32 mg/kg (0.037 mmol/kg). Here is the method: Mice of a normal control group and model mice were given normal saline 10 ml/kg/d, metformin hydrochloride enteric-coated tablets 225 mg/kg/d, Losartan 10 mg/kg, TMP (5.0 mg/kg, 0.037 mmol/kg), and OLB-1 and OLB-2 (13.32 mg/kg, 0.037 mmol/kg), at a volume of 10 mL/kg, once/d, for continuous administration of 56 d, blood lipids and blood glucose related indexes were measured after blood collection. Data were presented as mean±SEM; n=6 per group. One-way ANOVA and multiple range test were adopted to show differences between the two groups. a, p<0.05 vs. db/db group; c, p<0.001 vs. db/db group.

Test [2] deals with db/db mice. In words: Biochemical and metabolic indicators in db/db mice, 90 d administration. Format: in vivo. Particulars: once/d 90 d, Losartan 15 mg/kg/d, TMP 5.0 mg/kg, OLB-1 2.31 mg/kg, OLB-2 2.3 mg/kg, mean±SEM, n=6.
Test [3] deals with 6-OHDA Parkinson's disease rats. The test can be described thus: APO-induced rotations in 6-OHDA Parkinson's disease rats. Format: in vivo. The following applies: APO-induced 6-OHDA rats, 2 weeks of treatment; different dosages of OLB-1, OLB-2; levodopa 25 mg/kg; FIG. 8. From the text: There is no rotation in a sham-operated group, and there is no significant difference between the groups injected with 6-OHDA, and there are about 180 rotations. […] Data were presented as mean±SEM; n=9-10 per group. One-way ANOVA and multiple range test were adopted to show differences between the two groups. *p<0.05, **p<0.01 vs. before 6-OHDA group.

Test [4] concerns SH—SY5Y neuroblastoma cells. In words: LPS-induced inflammatory factors and oxidative stress-related proteins, ELISA kit. Format: cell-based. Particulars: 1 μg/mL LPS 24 h, mean±SEM, n=8; for TNF-alpha: differentiated SH-SY5Y, supernatant. Here is the method: The SH—SY5Y cells were recovered and cultured, and the cells in the logarithmic growth phase were taken. After 24 h of incubation, SH—SY5Y neuroblastoma cells were treated with 1 μM all-trans retinoic acid to induce differentiation, and then inoculated into a 6-well culture dish for 24 h of incubation. The medium was treated with chemicals feed at 0.2 μM (L) or 1 μM (H) and 1 μg/mL LPS for 24 h, a supernatant medium was aspirated, and changes of inflammatory factors and oxidative stress-related proteins were measured by an ELISA kit. Data were presented as mean±SEM; n=8 per group. One-way ANOVA and multiple range test were adopted to show differences between the two groups. a, p<0.05 vs. LPS group; b, p<0.01 vs. LPS group; c, p<0.001 vs. LPS group.
(An ELISA detects its analyte on a solid surface through an enzyme-linked reagent.)

Test [5] concerns ALS (SOD-G93A) transgenic mice. In words: Pole climbing test in ALS transgenic mice. Particulars: different dosages of OLB-1, OLB-2, riluzole 5 mg/kg, FIG. 6. Type of test: in vivo. From the text:
The pole climbing test is generally used to evaluate a motor coordination ability and motor delay of the limbs in mice. A homemade wooden pole about 50 cm long and about 1 cm in diameter was wrapped with medical gauze to increase friction of the wooden pole. The wooden pole was put vertically on a horizontal table, the mouse tail was grabbed such that the mouse head was facing down, with limbs grabbing a top of the pole; after releasing the mouse tail, timing was started, and it was ensured that the mouse crawled downward without external force, and the time was recorded for the mouse to climb from the top of the pole to a bottom platform (a standard was that mouse hind limbs were landed on the ground). […] An average of the three pole climbing times of mice was calculated as a final pole climbing time. […] Data were presented as mean±SEM; n=10 per group. One-way ANOVA and multiple range test were adopted to show differences between the two groups. ***p<0.001 vs. WT (normal control) group; #p<0.05, ##p<0.01 vs. ALS (SOD-G93A) group.

Test [6] concerns ALS (SOD-G93A) transgenic mice. The test can be described thus: Limb grip force test in ALS transgenic mice. Type of test: in vivo. Particulars: different dosages of OLB-1, OLB-2, riluzole 5 mg/kg, FIG. 7. How it is done: The limb grip force test is used directly to assess muscle strength in mice. […] After the start of administration, the grip force of the mice was tested every two weeks, and the measurement was repeated three times for each mouse, and the maximum among the three results was taken as a maximum grip force of the mice. […] Data were presented as mean±SEM; n=10 per group. One-way ANOVA and multiple range test show differences between the two groups. **p<0.01, ***p<0.001 vs. WT (normal control) group; #p<0.05, ##p<0.01 vs. ALS (SOD-G93A) group.

With `CCCCc1nc(Cl)c(CO)n1Cc1ccc(-c2ccccc2-c2nn[nH]n2)cc1` [Losartan, reference compound], in the test with db/db mice [1], the Creatinine is 42.12 ± 1.72(c) μmol/L, the Total cholesterol is 6.76 ± 0.46(c) mM, the Triglyceride is given as 9.68 ± 0.37(c) mg/dL and the Urea is given as 7.23 ± 0.51(c) mmol/L. Also, in the test with db/db mice [2], the Creatinine is recorded as 42.12 ± 1.72(c) μmol/L, the Urea was 7.23 ± 0.51(c) mmol/L and the Urine albumin/creatinine is recorded as 522.59 ± 103.42(c) mg/g.

For `N[C@@H](Cc1ccc(O)c(O)c1)C(=O)O` [levodopa, reference compound], the number of rotations entry in test [3] was “effectively reduce the number of rotations”.

As to `CN(C)C(=N)N=C(N)N` [metformin, reference compound], in the test with db/db mice [1], the Glycated hemoglobin is reported as 628.52 ± 50.59(c) nmol/L, the Glucose determination is 24.01 ± 2.38(c) mM, the High-density lipoprotein cholesterol is given as 2.19 ± 0.12(a) mM and the Low-density lipoprotein cholesterol is given as 0.59 ± 0.02(c) mM.

In test [4] (compound 0.2 μM (L)), `Cc1nc(C)c(C)nc1C` [TMP, tetramethylpyrazine, reference compound] returned a GSH-Px of 5.96 ± 0.74 µmol/mg, an IL1 of 13.26 ± 1.31 pg/mL, an IL6 of 14.12 ± 1.46 pg/mL and an MDA of 23.34 ± 1.71 nmol/mg. In test [4] (compound 0.2 μM (L)), this compound registered an SOD of 9.57 ± 0.61 nU/ml and a TNF-alpha of 12.22 ± 1.28 pg/mL. Besides, in test [4] (compound 1 μM (H)), the GSH-Px was 6.90 ± 0.87 µmol/mg, the IL1 is 13.53 ± 1.74 pg/mL, the IL6 is 12.69 ± 1.85 pg/mL and the MDA came to 22.94 ± 1.33 nmol/mg. In test [4] (compound 1 μM (H)), this compound returned an SOD of 8.93 ± 0.47 nU/ml and a TNF-alpha of 12.64 ± 1.70 pg/mL. In addition, in the test on db/db mice [1], the Creatinine came out at 52.5 ± 3.76 µmol/L, the Total cholesterol is 10.96 ± 1.38 ^ mM, the Triglyceride is given as 12.83 ± 1.37 ^ mg/dL and the Urea is recorded as 11.55 ± 0.59 ^ mmol/L. Also, in the test with db/db mice [1], the Glycated hemoglobin is recorded as 917.31 ± 57.43 ^ nmol/L, the Glucose determination is reported as 37.94 ± 3.11 ^ mM, the High-density lipoprotein cholesterol is 2.49 ± 0.16 ^ mM and the Low-density lipoprotein cholesterol is reported as 0.68 ± 0.04 ^ mM. For the same compound, in the test with db/db mice [2], the Creatinine stood at 52.5 ± 3.76 µmol/L, the Urea is reported as 11.55 ± 0.59 ^ mmol/L and the Urine albumin/creatinine was 687.35 ± 79.04 ^ mg/g.

For the compound `Nc1nc2ccc(OC(F)(F)F)cc2s1` [riluzole, reference compound], in test [5], the “pole climbing time / symptoms of bradykinesia” value was “significantly improve the symptoms of bradykinesia”. Further, the limb grip force entry in test [6] was “effectively increase the limb force”.
